PubChem BioAssay (NCI)
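96-well plates; 48 h exposure; 5 concentrations. Endpoints by linear interpolation between flanking doses. Not reached: highest tested concentration assigned. GI50 marks 50% less growth. Definition used: TGI = concentration required for complete inhibition of growth.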

Columns and labels:
Assay in all cases: NCI tumour cell line growth inhibition, 48 h
SW-620 colon = system: SW-620 colon
NCI-H460 lung = system: NCI-H460 lung
TK-10 renal = system: TK-10 renal
OVCAR-5 ovarian = system: OVCAR-5 ovarian
U251 CNS = system: U251 CNS
HCT-116 colon = system: HCT-116 colon
SF-539 CNS = system: SF-539 CNS
HCC-2998 colon = system: HCC-2998 colon
HL-60(TB) leukemia = system: HL-60(TB) leukemia
SF-295 CNS = system: SF-295 CNS

SMILES | GI50 (SW-620 colon) [µM] | TGI (SW-620 colon) [µM] | GI50 (NCI-H460 lung) [µM] | TGI (NCI-H460 lung) [µM] | GI50 (TK-10 renal) [µM] | TGI (TK-10 renal) [µM] | GI50 (OVCAR-5 ovarian) [µM] | TGI (OVCAR-5 ovarian) [µM] | GI50 (U251 CNS) [µM] | TGI (U251 CNS) [µM] | GI50 (HCT-116 colon) [µM] | TGI (HCT-116 colon) [µM] | GI50 (SF-539 CNS) [µM] | TGI (SF-539 CNS) [µM] | GI50 (HCC-2998 colon) [µM] | TGI (HCC-2998 colon) [µM] | GI50 (HL-60(TB) leukemia) [µM] | TGI (HL-60(TB) leukemia) [µM] | GI50 (SF-295 CNS) [µM] | TGI (SF-295 CNS) [µM]
O=S(=O)(NCCNc1nccc(-c2c(-c3cccc(O)c3)nc3sccn23)n1)c1ccc(F)cc1 | 5.95 | 36.9 | 4.2 | 22.8 | 11.9 | 42.1 | 17.8 | 64.6 | 7.48 | 49.3 | 3.26 | 27.1 | 5.23 | 24.6 | 10.2 | 25.7 |  |  |  | 
O=C(Nc1cccc(Cl)c1)Nc1cccc(Cl)c1 |  |  |  |  | > 100 | > 100 | > 100 | > 100 | 7.05 | > 100 |  |  | 49.1 | > 100 |  |  | 5.02 | > 100 | 3.01 | > 100
CC(C)(O)[C@@H]1CCC(C)([C@H]2[C@@H](O)CC3(C)C4CC(OC5OC(CO)C(O)C(O)C5O)C5C(C)(C)[C@@H](OC6OCC(O)C(O)C6O)CC[C@@]56C[C@@]46CC[C@]23C)O1 (stereo not given in full) |  | > 100 |  | > 100 |  | > 100 |  | > 100 |  | > 100 |  | > 100 |  | > 100 |  | > 100 |  | > 100 |  | > 100
CC(=O)OC1C=CC2CCN3C(=O)c4cc5c(cc4[C@H]1C23)OCO5 (stereo not given in full) |  | > 100 |  | > 100 |  | > 100 |  |  |  | > 100 |  | > 100 |  | > 100 |  |  |  | > 100 |  | > 100
COc1ccc(Nc2c3ccccc3nc3c2c2ccccc2n3C)cc1 | 41.7 | > 100 | 5.2 | > 100 | 13 | > 100 | > 100 | > 100 | 36.5 | > 100 | 30 | > 100 | 8.78 | 27.5 |  |  | 3.99 | 45.6 | 22.3 | > 100
COC(=O)[C@]12CC[C@@H](C)[C@H](C)[C@@H]1C1=CC[C@@H]3[C@@]4(C)C[C@@H](OC(=O)c5ccco5)[C@H](O)[C@@](C)(CO)[C@@H]4[C@H](O)C[C@@]3(C)[C@]1(C)CC2 | 1.79 | 3.54 | 1.97 | 3.87 | 2.49 | 7.85 | 2.13 | 5.51 | 1.97 | 4.21 | 1.88 | 3.41 | 2.28 | 5.17 | 1.95 | 3.73 | 2.08 | 5.46 | 1.84 | 3.87
Nc1nc(-c2ccccc2)c(-c2ccccc2)c(-c2nc(N)nc(-c3ccccc3)c2-c2ccccc2)n1 |  | > 100 |  | > 100 |  | > 100 |  | > 100 |  | > 100 |  | > 100 |  | > 100 |  | > 100 |  | > 100 |  | > 100
COc1ccc(/C=C2\N=C(c3ccccc3)OC2=O)c(OCc2ccccc2)c1 |  | > 100 |  | > 100 |  |  |  | > 100 |  |  |  | > 100 |  | 46.6 |  | > 100 |  | > 100 |  | 38.6
O=[N+]([O-])c1cccc(C2SCc3nc4ccccc4n32)c1 (stereo not given) |  | > 100 |  | > 100 |  | > 100 |  | > 100 |  | > 100 |  |  |  | > 100 |  |  |  | > 100 |  | > 100
